Test results from patent publication US9981972B2, “N-hydroxy bicyclic hydantoin carbamates as tools for identification of serine hydrolase targets” (ABIDE THERAPEUTICS, INC., priority 2014, dated 2018).
Entries after “also recorded” stand apart in the source; their conditions may differ.

Legend:
Format in all cases: biochemical
mABHD3 = target: T1, mABHD3 (Mus musculus, UniProt Q91ZH7); test: Gel-based competitive ABPP, recombinant enzyme in transfected HEK293T cell lysates; conditions: transfected HEK293T lysates, read-out: mABHD3 in vitro potency (IC50)
T1 construct: expressed in transfected cells; host or cells: HEK293T, transient transfection, pCMV-Sport6; lysate used in vitro
T1 sequence (Q91ZH7 1-411): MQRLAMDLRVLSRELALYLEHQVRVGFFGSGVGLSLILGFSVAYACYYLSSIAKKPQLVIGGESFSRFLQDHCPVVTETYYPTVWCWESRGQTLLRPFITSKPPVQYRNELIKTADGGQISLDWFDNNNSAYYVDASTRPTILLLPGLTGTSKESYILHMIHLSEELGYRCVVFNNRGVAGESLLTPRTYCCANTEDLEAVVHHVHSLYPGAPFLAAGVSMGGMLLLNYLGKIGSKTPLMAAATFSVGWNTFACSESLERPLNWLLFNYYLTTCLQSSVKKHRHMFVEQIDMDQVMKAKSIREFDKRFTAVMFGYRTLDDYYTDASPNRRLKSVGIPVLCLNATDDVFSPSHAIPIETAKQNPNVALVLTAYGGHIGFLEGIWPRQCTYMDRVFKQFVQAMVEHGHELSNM
Procedure: (§1) HEK293T cells were seeded at 2×10^5 per well on 6 well plates and grown for 48 h. They were then transfected with mABHD3 (pCMV-Sport6), hABHD4 (pcDNA3.1/myc-his), hPPT1 (pCMV6-XL5), or hPPT1 S115A (pCMV6-XL5), by incubating 0.5 μg of DNA with 3 μL of PEI MAX (1 mg/mL, Polysciences, Inc) in serum-free DMEM for 30 min, then adding them to cells. After 48 h cells were either treated with compound in situ, as described above, or harvested for in vitro studies. The […] PPT1 mutation was introduced using QuikChange II Site Directed Mutagenesis Kit (Agilent) with the following primers: […]
Human ABHD3 and ABHD4 were recombinantly expressed by transient transfection in HEK293T cells, and the cell lysates were combined to provide a convenient assay for monitor inhibition of both enzymes by gel-based ABPP (see FIG. 8A).

ABHD4 = target: T2, ABHD4 (Homo sapiens, UniProt Q8TB40); test: as above; design: myc-his; expressed in transfected cells; host or cells: HEK293T, transient transfection, pcDNA3.1/myc-his; lysate used in vitro; conditions: recombinant; for IC50: transfected HEK293T lysates, read-out: hABHD4 in vitro potency (IC50)
T2 sequence (Q8TB40 1-342): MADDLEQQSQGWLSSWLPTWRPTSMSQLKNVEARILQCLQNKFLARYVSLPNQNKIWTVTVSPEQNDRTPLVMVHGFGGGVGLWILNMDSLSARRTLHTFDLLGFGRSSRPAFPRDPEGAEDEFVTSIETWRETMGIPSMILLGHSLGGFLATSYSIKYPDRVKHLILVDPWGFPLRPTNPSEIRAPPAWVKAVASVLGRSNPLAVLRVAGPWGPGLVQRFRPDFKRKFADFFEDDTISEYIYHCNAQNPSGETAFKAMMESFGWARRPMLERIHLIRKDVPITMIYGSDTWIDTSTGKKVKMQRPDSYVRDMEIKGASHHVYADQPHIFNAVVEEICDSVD
Procedure: as §1
Human ABHD3 and ABHD4 were recombinantly expressed by transient transfection in HEK293T cells, and the cell lysates were combined to provide a convenient assay for monitor inhibition of both enzymes by gel-based ABPP (see FIG. 8A). […]

LYPLA1 = target: T3, LYPLA1 (Mus musculus, UniProt P97823); test: Gel-based competitive ABPP in vitro, mouse brain membrane proteome; conditions: 30 min, one replicate; for inhibition at 0.1 µM: 0.1 μM compound, read-out: LYPLA1 % INH 0.1 μM; for inhibition at 1 µM: 1 μM compound, read-out: LYPLA1 % INH 1 μM; for inhibition at 10 µM: 10 μM compound, read-out: LYPLA1 % INH 10 μM; for inhibition at 100 µM: 100 μM compound, read-out: LYPLA1 % INH 100 μM
T3 construct: a complex proteome endogenously expressing LYPLA1/2 was incubated with test compound; from tissue; host or cells: mouse brain, membrane fraction
T3 sequence (P97823 whole entry): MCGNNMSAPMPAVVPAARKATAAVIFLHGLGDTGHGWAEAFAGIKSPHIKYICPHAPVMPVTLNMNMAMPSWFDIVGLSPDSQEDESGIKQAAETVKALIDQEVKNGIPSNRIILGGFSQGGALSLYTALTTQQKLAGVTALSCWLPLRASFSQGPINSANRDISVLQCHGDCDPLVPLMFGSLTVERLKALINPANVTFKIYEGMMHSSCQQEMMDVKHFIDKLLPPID
Procedure: (§2) Assay Overview: The purpose of this assay was to determine whether test compounds can inhibit LYPLA1 and LYPLA2 in a complex proteomic lysate and to assess anti-target inhibition using a competitive activity-based proteomic profiling (ABPP) assay. In this assay, a complex proteome endogenously expressing LYPLA1/2 was incubated with test compound followed by reaction with a rhodamine-conjugated fluorophosphonate (FP-Rh) serine-hydrolase specific activity-based probe. The reaction products were separated by SDS-PAGE and visualized in-gel using a flatbed fluorescence scanner. The percentage activity remaining was determined by measuring the integrated optical density of the bands. […] Percent inhibition was calculated relative to a DMSO (no compound) control.
(§3) Protocol Summary: Mouse brain membrane proteome (50 μL reaction volume, 1 mg/mL in DPBS) was treated with 0.1-100 μM test compound (1 μL of a 50× stock in DMSO) for 30 minutes at 37° C. FP-Rh (1 μL of 50× stock in DMSO, Thermo #88318) was added to a final concentration of 2 μM. The reactions were incubated for 30 minutes at 25° C., quenched with 16 μL 4×SDS-PAGE loading buffer (reducing), separated by SDS-PAGE and visualized by in-gel fluorescent scanning. The percentage activity remaining was determined by measuring the integrated optical density of the bands relative to a DMSO-only (no compound) control. Assay Cutoff: Compounds with ≥50% inhibition of targets at 1 μM test compound concentration were considered active.
(§4) N-Hydroxy bicyclic hydantoin carbamates (Compounds 1-20) listed in Table 1 were subjected to gel-based competitive ABPP screening to assess SH reactivity against more than 20 FP-sensitive SHs visible by 1D SDS-PAGE separation and fluorescent detection in the mouse brain proteome (see FIG. 1). […] Compound treatment ([…], 30 minutes) was followed by labeling with SH-specific ABPP probe FP-Rh (2 μM, 30 minutes), 1D-SDS-PAGE, and in-gel fluorescent visualization of FP-labeled proteins. Assignment of LYPLA1/2 bands was based on correlation of molecular weights, expression and inhibition profiles with LC-MS/MS data and recombinant enzyme expression. Proteins were listed as anti-targets if at least 50% inhibition was observed as quantified relative to the DMSO control.
(§5) Compounds 1-20 were subjected to gel-based competitive ABPP profiling to assess potency and selectivity against several dozen FP-sensitive SHs in the mouse brain membrane proteome, which endogenously expresses LYPLA1 and LYPLA2, as well a diversity of potential SH anti-targets. Compounds were tested at 100 μM, 10 μM, 1 μM, and/or 0.1 μM compound concentration.

LYPLA2 = target: T4, LYPLA2 (Mus musculus, UniProt Q9WTL7); test: as above; conditions: 30 min, one replicate; for inhibition at 0.1 µM: 0.1 μM compound, read-out: LYPLA2 % INH 0.1 μM; for inhibition at 1 µM: 1 μM compound, read-out: LYPLA2 % INH 1 μM; for inhibition at 10 µM: 10 μM compound, read-out: LYPLA2 % INH 10 μM; for inhibition at 100 µM: 100 μM compound, read-out: LYPLA2 % INH 100 μM
T4 construct: a complex proteome endogenously expressing LYPLA1/2 was incubated with test compound; from tissue; host or cells: mouse brain, membrane fraction
T4 sequence (Q9WTL7 whole entry): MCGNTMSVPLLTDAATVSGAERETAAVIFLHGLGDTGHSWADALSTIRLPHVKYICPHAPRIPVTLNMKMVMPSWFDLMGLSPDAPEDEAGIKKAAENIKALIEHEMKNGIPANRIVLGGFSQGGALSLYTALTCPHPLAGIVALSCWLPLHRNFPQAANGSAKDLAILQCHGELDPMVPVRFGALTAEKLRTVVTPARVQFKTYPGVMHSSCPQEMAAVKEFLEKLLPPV
Procedure: as §2, §3, §4, §5

[1] = test system: FP-sensitive SHs in the mouse brain membrane proteome; test: Gel-based competitive ABPP in vitro, mouse brain membrane proteome, anti-targets; conditions: for Anti-target(s) 0.1 μM: SHs with at least 50% inhibition at 0.1 μM compound; for Anti-target(s) 1 μM: SHs with at least 50% inhibition at 1 μM compound; for Anti-target(s) 10 μM: SHs with at least 50% inhibition at 10 μM compound; for Anti-target(s) 100 μM: SHs with at least 50% inhibition at 100 μM compound
Procedure: as §2, §3, §4, §5

human LYPLA1 = target: T5, human LYPLA1 (Homo sapiens, UniProt O75608); test: IC50 by gel-based competitive ABPP in vitro, soluble HeLa cell proteome; conditions: human LYPLA isoform, three replicates; Table 2 prints no unit, nM; read-out: LYPLA1 IC50
T5 construct: endogenous human LYPLA1/2 in a HeLa soluble proteome; endogenous in cells; host or cells: HeLa (soluble proteome in vitro; cultured cells in situ)
T5 sequence (O75608 whole entry, canonical isoform): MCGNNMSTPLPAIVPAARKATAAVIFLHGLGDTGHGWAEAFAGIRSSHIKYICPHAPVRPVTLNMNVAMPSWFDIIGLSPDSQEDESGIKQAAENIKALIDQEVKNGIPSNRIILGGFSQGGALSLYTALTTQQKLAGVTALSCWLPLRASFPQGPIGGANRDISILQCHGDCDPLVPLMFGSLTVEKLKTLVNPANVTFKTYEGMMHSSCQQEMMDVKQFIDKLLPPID
Procedure: (§6) Assay Overview: The purpose of this assay was to determine IC50 values of powder samples of test compounds for enzyme of interest activity, and anti-targets in a complex proteomic lysate using a gel-based competitive ABPP assay. In this assay, a complex proteome was incubated with test compound followed by reaction with FP-Rh and SDS-PAGE analysis as described above.
(§7) Protocol Summary: Soluble HeLa cell proteome (50 μL reaction volume, 1 mg/mL in DPBS) or mouse brain membrane proteome (50 μL reaction volume, 1 mg/mL in DPBS) was treated with varying concentrations of test compound (1 μL of a 50× stock in DMSO) for 30 minutes at 37° C. FP-Rh (1 μL of 50× stock in DMSO) was added to a final concentration of 2 μM. The reaction was incubated for 30 minutes at 25° C., quenched with 16 μL 4×SDS-PAGE loading buffer (reducing), separated by SDS-PAGE and visualized by in-gel fluorescent scanning. The percentage activity remaining was determined by measuring the integrated optical density of the enzymes of interest, and anti-target bands relative to a DMSO-only (no compound) control. IC50 values were determined from dose-response curves from three replicates at each inhibitor concentration: 1, 10, 100, 1000, 10000 nM and 0.01, 0.1, 1, 10, 100, 1000, 10000, 50000, and 100000 nM.

human LYPLA2 = target: T6, human LYPLA2 (Homo sapiens, UniProt O95372); test: as above; conditions: human LYPLA isoform, three replicates; Table 2 prints no unit, nM; read-out: LYPLA2 IC50
T6 construct: endogenous human LYPLA1/2 in a HeLa soluble proteome; endogenous in cells; host or cells: HeLa (soluble proteome in vitro; cultured cells in situ)
T6 sequence (O95372 whole entry, canonical isoform): as the sequence (Q9WTL7 whole entry) above, with N154A, T193S counted along it
Procedure: as §6, §7

Structure (SMILES) | IC50 (mABHD3) | IC50 (ABHD4) | inhibition at 0.1 µM (LYPLA1) | inhibition at 1 µM (LYPLA1) | inhibition at 10 µM (LYPLA1) | inhibition at 100 µM (LYPLA1) | inhibition at 0.1 µM (LYPLA2) | inhibition at 1 µM (LYPLA2) | inhibition at 10 µM (LYPLA2) | inhibition at 100 µM (LYPLA2) | IC50 (human LYPLA1) | IC50 (human LYPLA2) | preference ABHD4 over ABHD3 (ABHD4; combined HEK293T lysates, gel-based ABPP) | Anti-target(s) 0.1 μM [1] | Anti-target(s) 1 μM [1] | Anti-target(s) 10 μM [1] | Anti-target(s) 100 μM [1]
O=C(ON1C(=O)C2CN(C(=O)N3CCCC3)CCN2C1=O)N1CCC(CCc2ccc(Cl)cc2)CC1 (centres unmarked) [Compound 3, 1,3-dioxo-7-(pyrrolidine-1-carbonyl)hexahydroimidazo[1,5-a]pyrazin-2(3H)-yl 4-(4-chlorophenethyl)piperidine-1-carboxylate] | – | – | 50% | 100% | 100% | 100% | 50% | 100% | 100% | 100% | 225 nM | 384 nM | – | ABHD6 | FAAH,; also recorded: ABHD6 | FAAH,; also recorded: ABHD6 | FAAH,; also recorded: ABHD12,; also recorded: ABHD4,; also recorded: MAGL,; also recorded: ABHD6
O=C(ON1C(=O)C2CN(C(=O)c3ccc(Br)cc3)CCN2C1=O)N1CCC(CCc2ccc(Cl)cc2)CC1 (centres unmarked) [Compound 7, 7-(4-bromobenzoyl)-1,3-dioxohexahydroimidazo[1,5-a]pyrazin-2(3H)-yl 4-(4-chlorophenethyl)piperidine-1-carboxylate] | – | – | 0% | 80% | 95% | 100% | 0% | 80% | 95% | 100% | 306 nM | 726 nM | – | ABHD6 | ABHD6 | FAAH,; also recorded: ABHD12,; also recorded: ABHD6 | FAAH,; also recorded: ABHD12,; also recorded: ABHD4,; also recorded: MAGL,; also recorded: ABHD6
CC(C)(C)CC(=O)N1CCN2C(=O)N(OC(=O)N3CCC(CCc4ccc(Cl)cc4)CC3)C(=O)C2C1 (centres unmarked) [Compound 4, 7-(3,3-dimethylbutanoyl)-1,3-dioxohexahydroimidazo[1,5-a]pyrazin-2(3H)-yl 4-(4-chlorophenethyl)piperidine-1-carboxylate] | – | – | 80% | 100% | 100% | 100% | 80% | 100% | 100% | 100% | 92 nM | 217 nM | – | ABHD6 | FAAH,; also recorded: ABHD6 | FAAH,; also recorded: ABHD12,; also recorded: MAGL,; also recorded: ABHD6 | FAAH,; also recorded: ABHD12,; also recorded: ABHD4,; also recorded: MAGL,; also recorded: ABHD6

Continued, in another order:

IC50 (mABHD3) | IC50 (ABHD4) | inhibition at 0.1 µM (LYPLA1) | inhibition at 1 µM (LYPLA1) | inhibition at 10 µM (LYPLA1) | inhibition at 100 µM (LYPLA1) | inhibition at 0.1 µM (LYPLA2) | inhibition at 1 µM (LYPLA2) | inhibition at 10 µM (LYPLA2) | inhibition at 100 µM (LYPLA2) | IC50 (human LYPLA1) | IC50 (human LYPLA2) | Structure (SMILES) | preference ABHD4 over ABHD3 (ABHD4; combined HEK293T lysates, gel-based ABPP) | Anti-target(s) 0.1 μM [1] | Anti-target(s) 1 μM [1] | Anti-target(s) 10 μM [1] | Anti-target(s) 100 μM [1]
> 10 µM | 200 nM | – | – | – | – | – | – | – | – | – | – | COc1ccc(N2CCN(C(=O)ON3C(=O)C4CN(Cc5cccc(Oc6ccccc6)c5)CCN4C3=O)CC2)cc1 (centres unmarked) [Compound 36, 1,3-dioxo-7-(3-phenoxybenzyl)hexahydroimidazo[1,5-a]pyrazin-2(3H)-yl 4-(4-methoxyphenyl)piperazine-1-carboxylate] | preferentially inhibited ABHD4 over ABHD3 | – | – | – | –
> 10 µM | 1000 nM | – | – | – | – | – | – | – | – | – | – | O=C(ON1C(=O)C2CN(Cc3cccc(Oc4ccccc4)c3)CCN2C1=O)N1CCC(CCc2ccc(Cl)cc2)CC1 (centres unmarked) [Compound 35, 1,3-dioxo-7-(3-phenoxybenzyl)hexahydroimidazo[1,5-a]pyrazin-2(3H)-yl 4-(4-chlorophenethyl)piperidine-1-carboxylate] | – | – | – | – | –
